Data reported in patent US7867998B2, “Method of making antitussive medicine and relieving cough” (Hong Kong Jockey Club Institute of Chinese Medicine Limited, priority 2005, dated 2011).

Legend:
[1] = system: guinea pigs; experiment: Antitussive assay: citric acid aerosol-induced cough in conscious guinea pigs, intragastric administration; type: in vivo, guinea pig; conditions: 0.5 M citric acid aerosol for 10 min, versus 1st challenge, HCl salt form in saline
Procedure: Unrestrained conscious guinea pigs were individually placed in a transparent Perspex airtight chamber and exposed to 0.5 M citric acid aerosol produced by an ultrasonic nebulizer (NEU12, Omron, Tokyo, Japan) for 10 min with a flow rate of 0.6 ml/min. During the 10 min observation period, the animals were continuously observed, and the numbers and timing of typical body movement of cough responses including opening the mouth, contraction of thoracic and abdomen muscles and a jerking of the front body were noted. The cough sounds were concurrently picked up via a microphone which connected to a personal computer and analyzed by Cool Edit 2000 software (Syntrillium, Phenix, USA). Thus a cough response can be differentiated from a sneeze and other background noises by observation of body movements, cough sound from loudspeakers and wave patterns recorded in the computer. Animals producing cough more than 18 times but less than 30 in the first challenge were selected for further antitussive tests. Cough episodes during the first challenge were recorded as control data. After 72 hour recovery, the selected sensitive animals were randomly divided into several groups with six animals in each group. The test samples were changed to their salt forms with 4% HCl to dissolve in saline and administrated intragastrically.
In the present experiments, neotuberostemonine produced a reduction in cough episodes by 17 and 40% (P<0.01 versus 1st challenge) at 25 and 50 mg/kg i.g., respectively. […] These two alkaloids are different from neotuberostemonine in molecular skeletons (i.e., base structures). Neotuberostemonine belongs to the stenine group while croomine and stemoninine belong to the tuberostemospironine and stemoamide groups, respectively. […] Since croomine and stemoninine are the major components of Radix Stemonae, they provided scientific evidence for the use of Radix Stemonae for cough treatment in folk medicines and in PRC Pharmacopeia.

[2] = system: cough; conditions: intraperitoneal, at the same dosage; Chung et al., Planta Med. 2003; cited from earlier work

Compound | reduction in cough episodes ([1]; 25 mg/kg i.g.) [%] | reduction in cough episodes ([1]; 50 mg/kg i.g.) [%] | inhibition (of cough) [2] [%]
CC[C@H]1[C@H]2[C@@H](CCCN3[C@H]2CC[C@H]3[C@@H]2C[C@H](C)C(=O)O2)O[C@]12C=C(C)C(=O)O2 [Stemoninine] | 32 | 66 | –
C[C@@H]1C[C@]2(CCCCN3[C@H]2CC[C@H]3[C@@H]2C[C@H](C)C(=O)O2)OC1=O [croomine, Croomine] | 35 | 57 | –
CC[C@@H]1[C@H]2CCCCN3[C@H]2[C@@H](C[C@H]3[C@@H]2C[C@H](C)C(=O)O2)[C@H]2[C@@H]1OC(=O)[C@H]2C [neotuberostemonine, reference compound] | 17 | 40 | 85
